These results are taken from patent US7884097B2, “Methods and compositions comprising diamines as new anti-tubercular therapeutics” (Sequella, Inc., priority 2003, dated 2011).

Assay [1] relates to M. tuberculosis H37Rv. The assay can be described thus: Rapid (3 wk) murine model of TB, body weight loss. Format: in vivo, mice. Particulars: for prevention of body weight loss and mortality: mice iv 10^6 CFU, test drugs 10 mg/kg daily by gavage for 10 days, INH 25 or 2.5 mg/kg; for loss of initial body weight: by day 21 following challenge, 10 mg/kg.
Another assay concerns H37Rv strain of Mtb. Put plainly: microbe, parasite or virus in culture. It counts as cell-based, M. tuberculosis.
For the next assay, the system named is HepG2 cell line. The assay can be described thus: In vitro cytotoxicity, MTS assay in HepG2 cell line. Format: cell-based. Particulars: Homo sapiens, HepG2 cells.
Assay [2] concerns M. tuberculosis H37Rv. Put plainly: Murine model of chronic TB, CFU in lung and spleen. Format: in vivo, mice. Particulars: for activity against M. tuberculosis in vivo: mice, two models (rapid and chronic).
For assay [3], the system named is recombinant mycobacteria containing a promoter fusion of luciferase to Rv0341. It counts as cell-based, M. tuberculosis. The following applies: active = exceeds untreated control by 1.5 times.
For another assay, the system named is Vero monkey kidney cells. The assay can be described thus: In vitro toxicity, MTS assay in Vero cells. Format: cell-based. Particulars: for SI (selectivity index, ratio of IC50:MIC): IC50 Vero cells : MIC. The procedure: Cytotoxicity The Vero cell line (ATCC CCL-8 1) was seeded overnight at 5×10^4 cells per well in 96-well plates at 37° C. and 5% CO2 in EMEM with essential amino acids and glutamine (BioFluids) supplemented with 10% heat-inactivated fetal bovine serum (FBS). Cells were exposed to dilutions of experimental and control drugs in triplicate for 72 hr, with each compound at a range of concentrations from 15-200 μM. Chlorpromazine (Sigma) was run as a control at the same concentrations. CellTiter 96 AQueous Assay (Promega) was used for determination of Vero cell viability. Briefly, a solution of MTS salt (3-(4,5-dimethylthiazol-2-yl)-5-(3-carboxymethoxyphenyl)-2-(4-sulfophenyl)-2H-tetrazolium) and phenazine methosulfate was added to each well and plates were incubated for 2 hr at 37° C. and 5% CO2. Absorbance of each well was read using BioRad microplate reader at 490 nm. Viability (absorbance) of cells in drug-exposed wells was compared to those in drug-free control wells, and a curve relating cell viability to drug concentration was created.

Assay [4] deals with M. tuberculosis in TB-infected mouse macrophage RAW 264.7 cells. The assay can be described thus: Efficacy in TB-infected macrophages, bioluminescence reporter assay. It counts as cell-based. Particulars: for intracellular activity compared to EMB and INH: RAW 264.7, 7 days, day 7 readout; for efficacy in macrophages compared to standard drugs (words): RAW 264.7, treated 6 days, 4 timepoints, five concentrations.

The subject of another assay is M. tuberculosis. The following applies: background statement; cited from earlier work.
The mark [5] stands for this setting: Mycobacterium tuberculosis, H37RV, Examples 4 and 5 and screening summary, read-out: MIC.
Where [6] appears, read: Mycobacterium tuberculosis, H37RV, read-out: MIC.
The mark [7] stands for this setting: Mycobacterium tuberculosis, H37RV, list of preferred compounds (FIG. 20), read-out: MIC.
The mark [8] stands for this setting: Primates, Vero, cytotoxicity, list of preferred compounds (FIG. 20), read-out: IC50.
The mark [9] stands for this setting: list of preferred compounds (FIG. 20).
[10] abbreviates: cytotoxicity, list of preferred compounds (FIG. 20), read-out: IC50.

Converted amounts (≈) assume the structure as drawn. “Also recorded” adds a separate entry of the source. Where two headings read alike, the source gives them in different places.

With `c1ccc(COc2ccc(CN3CCN(Cc4ccccc4)CC3)cc2)cc1` [SQ786, N -benzyl-N′-(4-benzyloxy)benzylpiperazine], the “prevention of body weight loss and mortality” value with M. tuberculosis H37Rv [1] is “prevented body weight loss and delayed mortality”. For the same molecule, the MIC worked out at 3.9 µM (≈ 1.45 µg/mL) with H37Rv strain of Mtb (setting [5]) and 3.13 µM (≈ 1.17 µg/mL) in the assay on H37Rv strain of Mtb (setting [6]). Further, 54 µM corresponded to half-maximal inhibition in the assay with HepG2 cell line (IC50). Moreover, the “activity against M. tuberculosis in vivo” value in the assay with M. tuberculosis H37Rv [2] is given as “promising activity against M.tb in vivo; also recorded: efficacious”. In addition, in assay [3], the “activity in the Luc assay” value was “not active”.

For `CC1(C)C2CC=C(CN3CCCN(CC4=CCC5CC4C5(C)C)CC3)C1C2` [SQ779], the MIC with H37Rv strain of Mtb (setting [7]) and in the assay with H37Rv strain of Mtb (setting [6]) was 7.8 µM (≈ 2.88 µg/mL) each time. The “SI (selectivity index, ratio of IC50:MIC)” value with Vero monkey kidney cells was 14.1. The 50% inhibitory concentration (IC50) in the assay with Vero monkey kidney cells (setting [8]) and in the assay with HepG2 cell line was 110 µM throughout.

On to `CCOc1ccccc1CN1CCCN(Cc2ccccc2OCC)CC1` [SQ780, N,N′-Bis(2-Ethoxybenzyl)homopiperazine], for which the “loss of initial body weight” value in the assay on M. tuberculosis H37Rv [1] is listed as 13%. Moreover, in the assay with M. tuberculosis H37Rv [1], the “prevention of body weight loss and mortality” value is “low efficacy; also recorded: not active”. The MIC in the assay with H37Rv strain of Mtb (setting [5]) came out at 1.56 µM (≈ 0.575 µg/mL); in the assay on H37Rv strain of Mtb (setting [7]), 1.56 µM (≈ 0.575 µg/mL); in the assay on H37Rv strain of Mtb (setting [6]) it was 3.9 µM (≈ 1.44 µg/mL). The “SI (selectivity index, ratio of IC50:MIC)” value in the assay on Vero monkey kidney cells is on record as 18.21. The IC50 in the assay with Vero monkey kidney cells (setting [8]) and with HepG2 cell line was 71 µM in each case. The “reduction of CFU in spleen” value in the assay with M. tuberculosis H37Rv [2] (10 mg/kg daily by gavage, 28 days, museum strain of H37Rv) is recorded as 1 log. Further, the “activity against M. tuberculosis in vivo” value with M. tuberculosis H37Rv [2] was “efficacious”. Also, in assay [4], the “intracellular activity compared to EMB and INH” value is “equivalent to or better than EMB, but less active than INH”. Further, the “efficacy in macrophages compared to standard drugs (words)” value in assay [4] is given as “equal or superior to ethambutol”.

For the molecule `CC(C)=CCC/C(C)=C/CNCCCN1CCCCC1C` (stereo not drawn) [#711, 1-(N-Geranyl)-3-Aminopropylpipecoline], in the assay on H37Rv strain of Mtb (setting [9]), the MIC worked out at 6.25 µM (≈ 1.83 µg/mL).

In the case of `CCOc1ccccc1CN1CCN(c2ccccc2F)CC1` [#766, N-(2-Fluorophenyl)-N′-(2-ethoxybenzyl)piperazine], in the assay on H37Rv strain of Mtb (setting [7]), the MIC came out at 12.5 µM (≈ 3.93 µg/mL). In addition, the “SI (selectivity index, ratio of IC50:MIC)” value in the assay with Vero monkey kidney cells is listed as 6.08. The same molecule registered an IC50 in the assay on Vero monkey kidney cells (Primates, Vero) of 76 µM.

Take `C=C(C)[C@@H]1CC=C(CN2CCCN(CC3=CC[C@@H](C(=C)C)CC3)CC2)CC1` [SQ781]: the MIC entry in the assay on H37Rv strain of Mtb (Examples 4 and 5 and screening summary) was “high MIC”.

In the case of `c1ccc(CN2CCN(C3CCC4CCCCC4C3)CC2)cc1` (stereo not drawn) [#787, N-Benzyl-N′-2-Decalonepiperazine], the MIC against H37Rv strain of Mtb (setting [9]) was 12.5 µM (≈ 3.91 µg/mL). Moreover, the 50% inhibitory concentration (IC50) in the assay on Vero monkey kidney cells (setting [10]) worked out at 70 µM.

Regarding `C1CN(C2C3CC4CC(C3)CC2C4)CCN(C2C3CC4CC(C3)CC2C4)C1` (stereo not drawn) [SQ775, N,N′-Bis(2-Adamantane)homopiperazine], the “loss of initial body weight” value with M. tuberculosis H37Rv [1] was found to be 4%. Further, the “prevention of body weight loss and mortality” value in the assay with M. tuberculosis H37Rv [1] is “prevented body weight loss and delayed mortality”. The “mortality in the group” value in the assay on M. tuberculosis H37Rv [1] (one week after chemotherapy withdrawn, 6 mice) was 50%. Moreover, in the assay on M. tuberculosis H37Rv [1] (ten days later, after chemotherapy withdrawal, 3 mice), the “loss of initial body weight of mice that remained alive” value is “about 20%”. The MIC with H37Rv strain of Mtb (setting [5]) worked out at 6.25 µM (≈ 2.3 µg/mL); in the assay on H37Rv strain of Mtb (setting [7]), 7.8 µM (≈ 2.88 µg/mL); with H37Rv strain of Mtb (setting [6]) it was 7.8 µM (≈ 2.88 µg/mL). Moreover, the “SI (selectivity index, ratio of IC50:MIC)” value with Vero monkey kidney cells amounted to 16.92. The IC50 in the assay with Vero monkey kidney cells (setting [8]) and in the assay with HepG2 cell line was 132 µM throughout. The “activity against M. tuberculosis in vivo” value in the assay with M. tuberculosis H37Rv [2] is recorded as “promising activity against M.tb in vivo; also recorded: efficacious”. The “efficacy in macrophages compared to standard drugs (words)” value in assay [4] (listed as 775) was “as effective as isoniazid”; in assay [4] (listed as #775), “equal or superior to ethambutol”. The “inhibition of bacterial growth” value in assay [4] (intracellular, RAW 264.7, day 7, concentration 2×MIC) turned out to be 99%.

On to `C1CCCC(N2CCCN(C3CCCCCCC3)CC2)CCC1` [SQ777], for which the MIC in the assay on H37Rv strain of Mtb (setting [6]) was found to be 7.8 µM (≈ 2.5 µg/mL). Also, the IC50 in the assay with HepG2 cell line turned out to be 74 µM.

Consider `COc1ccccc1CN1CCCN(Cc2ccccc2OC)CC1` [SQ782], for which the MIC with H37Rv strain of Mtb (setting [5]) is 6.25 µM (≈ 2.13 µg/mL); in the assay on H37Rv strain of Mtb (setting [6]), 7.8 µM (≈ 2.66 µg/mL). The midpoint of inhibition in the assay on HepG2 cell line, the IC50, lay at 105 µM. In assay [4], the “intracellular activity compared to EMB and INH” value is given as “equivalent to or better than EMB, but less active than INH”. Further, the “efficacy in macrophages compared to standard drugs (words)” value in assay [4] is given as “equal or superior to ethambutol”.

For the molecule `c1ccc(CN2CCN(C3C4CC5CC(C4)CC3C5)CC2)cc1` (stereo not drawn) [#785, N-Benzyl-N′-2-Adamantylpiperazine], the MIC in the assay with H37Rv strain of Mtb (setting [7]) was determined as 12.5 µM (≈ 3.88 µg/mL). The “SI (selectivity index, ratio of IC50:MIC)” value in the assay with Vero monkey kidney cells is given as 7.76. For the same molecule, the IC50 in the assay on Vero monkey kidney cells (setting [8]) is 97 µM.

On to `CC[C@@H](CO)NCCN[C@@H](CC)CO` [EMB, Ethambutol, reference compound], for which, in the assay with H37Rv strain of Mtb (setting [5]), the MIC is 12.5 µM (≈ 2.55 µg/mL). Also, the “Minimum Inhibition Concentration (MIC)” value in the assay with M. tuberculosis was “about 5 μg/ml”.

For `CC1CCCCN1CCCNCc1ccc(C(F)(F)F)cc1` (stereo not drawn) [#712, 1-(N-(4-Trifluorobenzyl)-3-Aminopropyl)pipecoline], the MIC against H37Rv strain of Mtb (setting [9]) was 12.5 µM (≈ 3.93 µg/mL).

For the molecule `Fc1ccccc1N1CCN(C2CCC3CCCCC3C2)CC1` (stereo not drawn) [#765, N-(2-Fluorophenyl)-N′-(2-decalone)piperazine], in the assay with H37Rv strain of Mtb, the MIC was 6.25 µM (≈ 1.98 µg/mL). Besides, the IC50 in the assay on Vero monkey kidney cells (setting [10]) is 70 µM.

On to `C1CCC2CC(N3CCCN(C4CCC5CCCCC5C4)CC3)CCC2C1` (stereo not drawn) [SQ778, N,N′-Bis(2-Decalone)homopiperazine], for which the MIC in the assay on H37Rv strain of Mtb (setting [7]) and in the assay on H37Rv strain of Mtb (setting [6]) was 7.8 µM (≈ 2.91 µg/mL) each time. For the same molecule, the “SI (selectivity index, ratio of IC50:MIC)” value in the assay on Vero monkey kidney cells came out at 6.92. The IC50 in the assay with Vero monkey kidney cells (setting [8]) and in the assay on HepG2 cell line was 54 µM in each case.

`NNC(=O)c1ccncc1` [INH, Isoniazid, reference compound]: the “prevention of body weight loss and mortality” value in the assay on M. tuberculosis H37Rv [1] is “did not show any signs of body loss”. For the same molecule, the MIC in the assay with H37Rv strain of Mtb (setting [5]) is 1 µM (≈ 0.137 µg/mL).
